Results from patent EP4610269A1, “UROKINASE PLASMINOGEN ACTIVATOR SURFACE RECEPTOR (UPAR) LIGANDS FOR DIAGNOSTIC OR THERAPEUTIC USE” (3B Pharmaceuticals GmbH, priority 2024, dated 2025).
*1 amine or outer side, *2 acyl side, *3 side chain or, on linkers, in order; H or OH if unused. Where a SMILES comes first, the peptide text is derived from it. Bridges are numbered along the chain shown (N, C = ends). [ ]: non-standard residue; d: D form. The star is where a group is joined. Pro(trans-4-NH2) = O=C([C@@H]1C[C@@H](N[*:3])CN1[*:1])[*:2]; DOTA = O=C(O)CN1CCN(CC(=O)O)CCN(CC(=O)*)CCN(CC(=O)O)CC1; Phe(4-CONH2) = NC(=O)c1ccc(C[C@H](N)C(=O)O)cc1; Pro(cis-4-F) = O=C(O)[C@@H]1C[C@H](F)CN1; Hyp = O=C(O)[C@@H]1C[C@@H](O)CN1; Pentanoyl(4-Me) = CC(C)CCC(=O)*; Cit = NC(=O)NCCC[C@H](N)C(=O)O; Butoxycarbonyl = CCCCOC(=O)*; Orn = NCCC[C@H](N)C(=O)O; Nva = CCC[C@H](N)C(=O)O; Pentanoyl = CCCCC(=O)*

Columns and labels:
Type in all cases: in vitro ADME
[1] = Plasma stability assay (human plasma); settings: human plasma (sodium citrate 3.7%), 37°C, LC-MS quantification, read-out: % intact compound remaining after 6h incubation Human plasma
Method: In order to determine the stability of selected compounds of the invention in human and mouse plasma, a plasma stability assay was carried out. Such plasma stability assay measures degradation of compounds of the present invention in blood plasma. This is an important characteristic of a compound as compounds, with the exception of pro-drugs, which rapidly degrade in plasma, generally show poor in vivo efficacy. […] The stability is sufficient for the diagnostic, therapeutic and theragnostic use of these compounds according to the present invention.
The plasma stability samples were prepared by spiking 50 µl plasma aliquots (all sodium citrate 3.7%) with 1 µl of a 0.5 mM compound stock solution in DMSO. After vortexing the samples were incubated in a Thermomixer at 37°C for 0 and 6 hours. After incubation the samples were stored on ice until further treatment. All samples were prepared in duplicates.
A suitable internal standard was added to each sample (1 µl of a 0.5 mM stock solution in DMSO). Protein precipitation was performed using two different methods depending on the compound conditions as indicated in Table 13. • A) 250 µl of acetonitrile containing 1% trifluoroacetic acid was added. […]
(§1) Quantitation was performed by external matrix calibration with internal standard using the integrated analyte signals.
Additionally, recovery was determined by spiking a pure plasma sample that only contained the internal standard after treatment with a certain amount of the compound.
Carry-over was evaluated by analysis of a blank sample (20% acetonitrile) after the highest calibration sample.
The result is stated as "% intact compound remaining after 6 h incubation" and means that from the amount of material at the start of the experiment the stated percentage is detected as unchanged material at the end of the experiment by LC-MS quantification. […]

[2] = Plasma stability assay (mouse plasma); settings: mouse plasma (sodium citrate 3.7%), 37°C, LC-MS quantification, read-out: % intact compound remaining after 6h incubation Mouse plasma
How it was run: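 Compound from a 0.5 mM DMSO stock was spiked into sodium-citrate human or mouse plasma and incubated at 37°C for 0 and 6 h in duplicate. After protein precipitation with internal standard, intact compound was quantified by UHPLC-Q-TOF MS (positive ESI) against matrix calibration, reported as % remaining after 6 h.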

[3] = target: T1, Recombinant soluble human NEP (Homo sapiens, UniProt P08473); test: Proteolytic stability assay against NEP; settings: recombinant soluble human NEP, human NEP 100 ng/mL, compound 10 µM, 37°C, LC-MS quantification, read-out: % intact compound remaining after 24h incubation
T1 construct: Recombinant soluble human NEP; purchased BioTechne, Wiesbaden, Germany
T1 sequence (P08473 52-750 limits assumed): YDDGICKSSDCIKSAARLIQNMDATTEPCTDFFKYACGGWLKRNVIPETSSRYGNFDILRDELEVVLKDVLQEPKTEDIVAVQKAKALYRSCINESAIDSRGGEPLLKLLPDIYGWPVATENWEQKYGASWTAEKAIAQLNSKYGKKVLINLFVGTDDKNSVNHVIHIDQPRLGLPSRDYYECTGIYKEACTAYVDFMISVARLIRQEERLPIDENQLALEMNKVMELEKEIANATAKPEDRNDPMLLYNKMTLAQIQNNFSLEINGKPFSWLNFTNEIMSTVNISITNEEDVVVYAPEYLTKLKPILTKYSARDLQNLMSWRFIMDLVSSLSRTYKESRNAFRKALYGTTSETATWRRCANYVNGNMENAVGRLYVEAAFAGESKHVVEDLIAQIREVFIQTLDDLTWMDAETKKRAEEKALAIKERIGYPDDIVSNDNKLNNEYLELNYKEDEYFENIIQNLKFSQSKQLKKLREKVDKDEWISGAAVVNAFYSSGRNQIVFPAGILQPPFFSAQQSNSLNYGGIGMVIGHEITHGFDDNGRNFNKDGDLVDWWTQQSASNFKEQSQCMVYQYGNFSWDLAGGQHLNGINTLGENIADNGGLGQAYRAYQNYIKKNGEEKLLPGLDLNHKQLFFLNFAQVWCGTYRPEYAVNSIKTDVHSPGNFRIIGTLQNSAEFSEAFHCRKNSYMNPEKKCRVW
Method: To assess the stability of compounds against NEP, the compounds were subjected to an in vitro assay based on the protocol described by Edelson et al. (Edelson, Makhlina et al. 2013).
Recombinant soluble human NEP (BioTechne, Wiesbaden, Germany) at a concentration of 100 ng/mL was mixed with the compound (10 µM) and a stable internal standard (10 µM) and incubated at 37°C. After several time points, samples were taken and analyzed with LC-MS.
The determination of the analyte in the clean sample solutions was performed on an Agilent 1290 UHPLC system coupled to an Agilent 6530 Q-TOF mass spectrometer. The chromatographic separation was carried out on a Phenomenex BioZen XB-C18 HPLC column (50 × 2 mm, 1.7 µm particle size) with gradient elution using a mixture of 0.1% formic acid in water as eluent A and acetonitrile as eluent B (2% B to 41% in 7 min, 800 µl/min, 40°C). Mass spectrometric detection was performed in positive ion ESI mode by scanning the mass range from m/z 50 to 3000 with a sampling rate of 2 / sec.
From the mass spectrometric raw data the ion currents for the double or triple charged monoisotopic signal was extracted for both, the compound and the internal standard.
as §1
The activity of NEP was examined using a commercially available chromogenic substrate of NEP.
The result is stated as "% intact compound remaining after 24 h incubation" and means that from the amount of material at the start of the experiment the stated percentage is detected as unchanged material at the end of the experiment by LC-MS quantification. Since all compounds are more than 50% intact after 24 h they are considered as stable enough for diagnostic and therapeutic applications. Table 14: Results of the NEP stability assay

| remaining at 6 h, 9.8 µM [2] [%] | remaining at 24 h, 10 µM [3] [%] | SMILES | remaining at 6 h, 9.8 µM [1] [%] |
| --- | --- | --- | --- |
| 95 | > 95 | CC[C@H](C)[C@@H]1NC(=O)[C@@H]2C[C@@H](NC(=O)CN3CCN(CC(=O)O)CCN(CC(=O)O)CCN(CC(=O)O)CC3)CN2C(=O)[C@@H]2CCCN2C(=O)[C@H](Cc2ccccc2)NC(=O)[C@H](Cc2ccc(O)cc2)NC(=O)[C@H](CCC(N)=O)NC(=O)[C@H](CCCNC(N)=O)NC(=O)[C@@H](NC(=O)CCC(C)C)CSSC[C@@H](C(N)=O)NC(=O)[C@H](CC(C)C)NC1=O [UPAR-389, iHex-[Cys-Cit-Gln-Tyr-Phe-Pro-Tap(DOTA)-Ile-Leu-Cys]-NH2] ({Pentanoyl(4-Me)}-C[Cit]QYFP[Pro(trans-4-NH2)](DOTA)ILC-NH2; disulfide 1-10) |  |
| 87 | 95 | CCCCC(=O)N[C@H]1CSSC[C@@H](C(N)=O)NC(=O)[C@H](CCC)NC(=O)[C@H]([C@@H](C)CC)NC(=O)[C@@H]2C[C@@H](O)CN2C(=O)[C@@H]2C[C@@H](O)CN2C(=O)[C@H](Cc2ccccc2)NC(=O)[C@H](Cc2ccc(O)cc2)NC(=O)[C@H](CCCCNC(=O)CN2CCN(CC(=O)O)CCN(CC(=O)O)CCN(CC(=O)O)CC2)NC(=O)[C@H](CCCNC(N)=O)NC1=O [UPAR-403, Pent-[Cys-Cit-Lys(DOTA)-Tyr-Phe-Hyp-Hyp-Ile-Nva-Cys]-NH2] (Pentanoyl-C[Cit]K(DOTA)YF[Hyp][Hyp]I[Nva]C-NH2; disulfide 1-10) |  |
| 83 | 61 | CC[C@H](C)[C@@H]1NC(=O)[C@@H](C)NC(=O)[C@@H]2CCCN2C(=O)[C@H](Cc2ccccc2)NC(=O)[C@H](Cc2ccc(O)cc2)NC(=O)[C@H](CCC(N)=O)NC(=O)[C@H](CCCNC(N)=O)NC(=O)[C@@H](NC(=O)[C@H](CC(C)C)NC(=O)CN2CCN(CC(=O)O)CCN(CC(=O)O)CCN(CC(=O)O)CC2)CSSC[C@@H](C(N)=O)NC(=O)[C@H](CC(C)C)NC1=O [UPAR-441, DOTA-Leu-[Cys-Cit-Gln-Tyr-Phe-Pro-ala-Ile-Leu-Cys]-NH2] ({DOTA}-LC[Cit]QYFP[dA]ILC-NH2; disulfide 2-11) |  |

Further lines, the compound ahead of its results:

| SMILES | remaining at 6 h, 9.8 µM [2] [%] | remaining at 24 h, 10 µM [3] [%] | remaining at 6 h, 9.8 µM [1] [%] |
| --- | --- | --- | --- |
| CCCCOC(=O)N[C@H]1CSSC[C@@H](C(N)=O)NC(=O)[C@H](CCC)NC(=O)[C@H]([C@@H](C)CC)NC(=O)[C@@H]2C[C@@H](O)CN2C(=O)[C@@H]2C[C@H](F)CN2C(=O)[C@H](Cc2ccccc2)NC(=O)[C@H](Cc2ccc(C(N)=O)cc2)NC(=O)[C@H](CCCNC(=O)CN2CCN(CC(=O)O)CCN(CC(=O)O)CCN(CC(=O)O)CC2)NC(=O)[C@H]([C@@H](C)O)NC1=O [UPAR-276, Butoc-[Cys-Thr-Orn(DOTA)-Pcnf-Phe-4Cfp-Hyp-Ile-Nva-Cys]-NHz] (Butoxycarbonyl-CT[Orn](DOTA)[Phe(4-CONH2)]F[Pro(cis-4-F)][Hyp]I[Nva]C-NH2; disulfide 1-10) | 89 | 88 | > 95 |
| CC[C@H](C)[C@@H]1NC(=O)[C@@H](C)NC(=O)[C@@H]2CCCN2C(=O)[C@H](Cc2ccccc2)NC(=O)[C@H](Cc2ccc(O)cc2)NC(=O)[C@H](CC(=O)O)NC(=O)[C@H](CCCNC(N)=O)NC(=O)[C@@H](NC(=O)CCC(C)C)CSSC[C@@H](C(N)=O)NC(=O)[C@H](CC(C)C)NC1=O [UPAR-434, iHex-[Cys-Cit-Asp-Tyr-Phe-Pro-ala-Ile-Leu-Cys]-NH2] ({Pentanoyl(4-Me)}-C[Cit]DYFP[dA]ILC-NH2; disulfide 1-10) | 90 | > 95 |  |
